Consider 15 molecules from patent US7105577B2, “Antimicrobial method using a hydroxydiphenyl ether compound” (Ciba Specialty Chemicals Corporation, priority 1999, dated 2006).

Molecules are shown by their SMILES. In brackets after ≈: the same amount, converted by molar mass. Bounds are passed on as bounds.

Assay type in all cases: cell-based
Assay [1] has as its system Staphylococcus hominis DSM 20328. As to the kind of experiment: Agar incorporation test, MIC. The note with it: for MIC: DSM20328, Table 1, Staphylococcus hominis DSM 20328, agar incorporation, read-out: Minimum Inhibitory Concentration, SH.
Assay [2] deals with Aspergillus niger ATCC 6275. Put plainly: Agar incorporation test, MIC. The note with it: for MIC: ATCC6275, Table 1, Aspergillus niger ATCC 6275, agar incorporation, read-out: Minimum Inhibitory Concentration, AN. The source says: (§1) Medium: • Nutrient agar as test agar for bacteria: • Mueller hinton agar to cultivate the aerobic bacteria • Mueller hinton bouillon for obtaining the suspension of microorganisms • Ethanol as solvent • Wilkins-Chalgren agar to cultivate the […] bacteria • Sabouraud glucose agar to cultivate the dermatophytes
(§2) Examples of Test bacteria • Staphylococcus aureusATCC 6538 • Staphylococcus hominis DSM 20330 • Escherichia coli NCTC 8196 • Pseudomonas aeruginosa CIP A-22 • Candida albicans ATCC 10231 • Aspergillus niger ATCC 6275
(§3) Procedure: The test substances are dissolved in ethanol, and a dilution series of the compound of the formula (102) in agar are prepared. • Anaerobic bacteria and dermatophytes are activated on agar-plates, and washes off with Mueller-Hinton bouillon. Aerobic bacteria are activated in Mueller-Hinton bouillon overnight. The test germ suspension are diluted with Mueller-Hinton bouillon to a density of McFarland standard 0.5. • 10 μl of each germ suspension is dropped onto the agar plates containing the test substance, and the plates are then incubated at 37° C. for 2 days. (Aerobic bacteria are incubated at 36° C. for 72 hours, anaerobic bacteria are incubated at 30° C. for 72 hours). As controls, the bacterial suspensions are applied to agar plates without test substances.

The subject of assay [3] is Candida albicans ATCC 10231. As to the kind of experiment: Agar incorporation test, MIC. The note with it: for MIC: ATCC10231, Table 1, Candida albicans ATCC 10231, agar incorporation, read-out: Minimum Inhibitory Concentration, CA; for MIC, Candida albicans ATCC 10231: Table 4.
Description: as §1, §2, §3

For assay [4], the system named is Escherichia coli NCTC 8196. As to the kind of experiment: Agar incorporation test, MIC. The settings on record: for MIC: NCTC8196, Table 1, Escherichia coli NCTC 8196, agar incorporation, read-out: Minimum Inhibitory Concentration, EC; for MIC, Escherichia coli NCTC 8196: Table 4.
Description: as §1, §2, §3

Assay [5] deals with Staphylococcus aureus ATCC 6538. Put plainly: Agar incorporation test, MIC. The note with it: for MIC: ATCC6538, Table 1, Staphylococcus aureus ATCC 6538, agar incorporation, read-out: Minimum Inhibitory Concentration, SA; for MIC, Staphylococcus aureus ATCC 6538: Table 4.
Description: as §1, §2, §3

The subject of assay [6] is Pseudomonas aeruginosa CIP A-22. As to the kind of experiment: Agar incorporation test, MIC. The settings on record: for MIC, Pseudomonas aeruginosa CIP A-22: Table 4.
Description: as §1, §2, §3

For assay [7], the system named is Actinomyces viscosum DSM 43329. Put plainly: Microbiological data (MIC). The note with it: Table 4. The procedure:
as §1, §3
(§4) Microbiological data of the above compounds (MIC in ppm): […]

Assay [8] has as its system Corynebacterium minutissimum ATCC 23348. Put plainly: Microbiological data (MIC). The note with it: Table 4. Here is the method:
as §1, §3, §4

For assay [9], the system named is Corynebacterium xerosis ATCC 373/ATCC 7711. Put plainly: Microbiological data (MIC). The settings on record: Table 4. Here is the method:
as §1, §3, §4

Assay [10] deals with Epidermophyton floccosum CBS 55384. As to the kind of experiment: Microbiological data (MIC). The note with it: Table 4. Here is the method: as §1, §3, §4
In assay [11] the test system is Porphyromonas gingivalis DSM 20709. As to the kind of experiment: Microbiological data (MIC). The note with it: Table 4. The procedure:
as §1, §3, §4

The subject of assay [12] is Propionibacterium acnes ATCC 11829. Put plainly: Microbiological data (MIC). The settings on record: Table 4. The procedure:
as §1, §3, §4

Assay [13] has as its system Proteus vulgaris ATCC 6896. Put plainly: Microbiological data (MIC). The note with it: Table 4. Here is the method: as §1, §3, §4
Assay [14] deals with Selenomonas artemidis ATCC 43528. As to the kind of experiment: Microbiological data (MIC). The settings on record: Table 4. Here is the method: as §1, §3, §4
Assay [15] relates to Staphylococcus epidermidis ATCC 12228. As to the kind of experiment: Microbiological data (MIC). The note with it: Table 4. Here is the method:
as §1, §3, §4

Assay [16] has as its system Streptococcus sobrinus DSM 20742. As to the kind of experiment: Microbiological data (MIC). The settings on record: Table 4. The procedure: as §1, §3, §4
In assay [17] the test system is Trichophyton mentagrophytes ATCC 9553. As to the kind of experiment: Microbiological data (MIC). The settings on record: Table 4. The procedure:
as §1, §3, §4

In assay [18] the test system is Trichophyton rubrum DSM 4167. As to the kind of experiment: Microbiological data (MIC). The note with it: Table 4. Here is the method:
as §1, §3, §4

In the case of `CCCC(=O)c1ccc(O)c(Oc2ccccc2)c1` [(109)], the MIC in assay [1] amounted to 30 µg/mL (≈ 117 µM); in assay [2] it was 120 µg/mL (≈ 468 µM); in assay [3], 120 µg/mL (≈ 468 µM); in [4], 30 µg/mL (≈ 117 µM).

As for `Cc1ccc(C(C)(C)C)c(Oc2ccc(O)cc2)c1` [(121)], the MIC was found to be 5 µg/mL (≈ 19.5 µM) in [1], 13 µg/mL (≈ 50.7 µM) in assay [3] and 7 µg/mL (≈ 27.3 µM) in assay [5].

As for `CCc1ccc(Oc2ccc(O)cc2)c(C(C)C)c1` [(124)], the results for the MIC in assay [1] and in assay [3] were 8 µg/mL (≈ 31.2 µM) and 60 µg/mL (≈ 234 µM), respectively.

Consider `Cc1ccc(C(C)C)cc1Oc1ccc(O)cc1` [R1 = Me R2 = i-Propyl], for which, in [1] (Table 4), the “MIC, Staphylococcus hominis DSM 20328” value amounted to 6.25 ppm. In assay [2] (Table 4), the “MIC, Aspergillus niger ATCC 6275” value was 50 ppm. Also, the “MIC, Candida albicans ATCC 10231” value in assay [3] is recorded as 12.5 ppm. Further, in assay [4], the “MIC, Escherichia coli NCTC 8196” value is above 200 ppm. The “MIC, Pseudomonas aeruginosa CIP A-22” value in [6] is listed as above 200 ppm. Further, the “MIC, Staphylococcus aureus ATCC 6538” value in assay [5] came out at 6.25 ppm. In [7], the “MIC, Actinomyces viscosum DSM 43329” value was found to be 80 ppm. For the same molecule, in assay [8], the “MIC, Corynebacterium minutissimum ATCC 23348” value is listed as 6.25 ppm. In assay [9], the “MIC, Corynebacterium xerosis ATCC 373/ATCC 7711” value is 3.125 ppm. Further, in [10], the “MIC, Epidermophyton floccosum CBS 55384” value was below 3.125 ppm. Moreover, in assay [11], the “MIC, Porphyromonas gingivalis DSM 20709” value was determined as 5 ppm. The “MIC, Propionibacterium acnes ATCC 11829” value in [12] came to 10 ppm. In assay [13], the “MIC, Proteus vulgaris ATCC 6896” value is given as above 200 ppm. In addition, the “MIC, Selenomonas artemidis ATCC 43528” value in [14] amounted to 10 ppm. Also, the “MIC, Staphylococcus epidermidis ATCC 12228” value in assay [15] is 6.25 ppm. Moreover, in assay [16], the “MIC, Streptococcus sobrinus DSM 20742” value is 5 ppm. Also, in assay [17], the “MIC, Trichophyton mentagrophytes ATCC 9553” value is recorded as 6.25 ppm. For the same molecule, the “MIC, Trichophyton rubrum DSM 4167” value in [18] stood at 5 ppm.

For `CCC(=O)c1ccc(O)c(Oc2ccccc2)c1` [(108)], the MIC in [1] was found to be 60 µg/mL (≈ 248 µM); in assay [4], 120 µg/mL (≈ 495 µM).

With `CC(C)c1ccccc1Oc1ccccc1O` [(112)], the results for the MIC in assay [1], in assay [2] and in [3] were 60 µg/mL (≈ 263 µM), 120 µg/mL (≈ 526 µM) and 60 µg/mL (≈ 263 µM), respectively.

For the molecule `CCc1ccc(Oc2ccc(O)cc2)cc1` [(126)], the MIC in [1], in assay [3] and in assay [4] was 120 µg/mL (≈ 560 µM) each time.

On to `Cc1ccc(C2CCCCC2)c(Oc2ccc(O)cc2)c1` [(119)], for which the MIC in assay [1] and in assay [5] was 3 µg/mL (≈ 10.6 µM) each time.

Turning to `CCCc1ccc(Oc2ccc(O)cc2)c(C(C)C)c1` [(130)], the MIC in assay [3] is 20 µg/mL (≈ 74 µM); in [6] (CIPA22, Table 1, Pseudomonas aeruginosa CIP A-22, agar incorporation, read-out: Minimum Inhibitory Concentration, PA) it was 20 µg/mL (≈ 74 µM); in assay [5], 50 µg/mL (≈ 185 µM).

On to `CCC(C)c1ccccc1Oc1ccccc1O` (centres unmarked) [(111)], for which the figures for the MIC in assay [1], in [2] and in [3] were 60 µg/mL (≈ 248 µM), 120 µg/mL (≈ 495 µM) and 30 µg/mL (≈ 124 µM), respectively.

Consider `CCc1ccccc1Oc1ccccc1O` [(115)], for which the MIC in assay [1], in [2], in [3] and in [4] was 120 µg/mL (≈ 560 µM) in each case.

For `CCCc1ccc(Oc2ccc(O)cc2)cc1` [(125)], the MIC in [1] was 30 µg/mL (≈ 131 µM); in assay [3], 30 µg/mL (≈ 131 µM); in [4], 120 µg/mL (≈ 526 µM).

For the molecule `Cc1ccc(C)c(Oc2ccc(O)cc2)c1` [R1 = R2 = Me], the “MIC, Candida albicans ATCC 10231” value in assay [3] worked out at 25.0 ppm. Also, the “MIC, Escherichia coli NCTC 8196” value in [4] is reported as above 200 ppm. In assay [6], the “MIC, Pseudomonas aeruginosa CIP A-22” value is recorded as above 200 ppm. The “MIC, Staphylococcus aureus ATCC 6538” value in [5] is recorded as 50.0 ppm. Further, the “MIC, Corynebacterium minutissimum ATCC 23348” value in [8] worked out at 25.0 ppm. In addition, the “MIC, Corynebacterium xerosis ATCC 373/ATCC 7711” value in assay [9] was 25.0 ppm. Further, the “MIC, Proteus vulgaris ATCC 6896” value in [13] was above 200 ppm. Moreover, in assay [15], the “MIC, Staphylococcus epidermidis ATCC 12228” value came out at 25.0 ppm.

With `Cc1ccc(C(C)C)cc1Oc1ccc(O)cc1` [(122)], the values for the MIC in assay [1], in [3] and in assay [5] were 6 µg/mL (≈ 24.8 µM), 13 µg/mL (≈ 53.6 µM) and 6 µg/mL (≈ 24.8 µM), respectively.

Take `O=Cc1ccc(O)c(Oc2ccccc2)c1` [(110)]: in assay [4], the MIC came out at 30 µg/mL (≈ 140 µM).
